For series [1], the system named is HCT-116. Description: Antitumor activity against human HCT116 cells xenografted in BALB/c mouse assessed as tumor growth inhibition at 20 mg/kg/day, iv administered on day 1, 5 and 9 relative to control. The series is classed as functional. To be noted: HCT-116, 24 h, read-out: TGI.
Series [2] has as its system HCT-116. Put plainly: Antitumor activity against human HCT116 cells xenografted in BALB/c mouse assessed as tumor growth inhibition at 40 mg/kg/day, iv administered on day 1, 5 and 9 relative to control. Type of series: functional. To be noted: HCT-116, 24 h, read-out: TGI. (In general: A xenograft is tissue or cells of one species grown in another, often human tumour cells in immunodeficient mice.)

For series [3], the system named is Mus musculus. Put plainly: Toxicity in BALB/c mouse assessed as mortality at 20 mg/kg/day, iv administered on day 1, 5 and 9. The series is classed as organism-based. More on the design: route intravenous. As to conditions: in vivo.
Series [4] deals with Mus musculus. Put plainly: Toxicity in BALB/c mouse assessed as mortality at 40 mg/kg/day, iv administered on day 1, 5 and 9. Type of series: organism-based. More on the design: route intravenous. To be noted: in vivo.
A further series has as its system A549. Put plainly: Cytotoxicity against human A549 cells after 96 hrs by microplate reader analysis. The series is classed as functional, cell-based. As to conditions: A549, 96 h.
For a further series, the system named is HT-29. Description: Cytotoxicity against human HT-29 cells after 96 hrs by microplate reader analysis. Type of series: functional, cell-based. To be noted: HT-29, 96 h.
In series [5] the test system is HCT-116. Description: Cytotoxicity against human HCT116 cells after 96 hrs by microplate reader analysis. The series is classed as functional, cell-based. As to conditions: HCT-116, 96 h.
Another series relates to Liver. Put plainly: Metabolic stability in BALB/c mouse liver microsomes at 1 umol/l by LC-MS/MS analysis. The series is classed as ADME. To be noted: 1 µM. (In general: Liver microsomes are a subcellular fraction often used to study metabolism.)
Series [6] deals with HCT-116. Put plainly: Antitumor activity against human HCT116 cells xenografted in BALB/c mouse assessed as tumor growth inhibition at 5 mg/kg/day, iv administered on day 1, 5 and 9 relative to control. The series is classed as functional. To be noted: HCT-116, 24 h, read-out: TGI.
Series [7] has as its system HCT-116. Put plainly: Antitumor activity against human HCT116 cells xenografted in BALB/c mouse assessed as tumor growth inhibition at 10 mg/kg/day, iv administered on day 1, 5 and 9 relative to control. Type of series: functional. As to conditions: HCT-116, 24 h, read-out: TGI.
In series [8] the test system is Mus musculus. Put plainly: Toxicity in BALB/c mouse assessed as mortality at 5 mg/kg/day, iv administered on day 1, 5 and 9. Type of series: organism-based. Also noted: route intravenous. To be noted: in vivo.
The test system of series [9] is Mus musculus. Put plainly: Toxicity in BALB/c mouse assessed as mortality at 10 mg/kg/day, iv administered on day 1, 5 and 9. Type of series: organism-based. As to conditions: in vivo. Also noted: route intravenous.
Series [10] relates to HCT-116. Put plainly: Antitumor activity against human HCT116 cells xenografted in BALB/c mouse assessed as tumor growth inhibition at 12.5 mg/kg/day, iv administered on day 1, 5 and 9 relative to control. Type of series: functional. As to conditions: HCT-116, 24 h, read-out: TGI.
Series [11] relates to HCT-116. Put plainly: Antitumor activity against human HCT116 cells xenografted in BALB/c mouse assessed as tumor growth inhibition at 25 mg/kg/day, iv administered on day 1, 5 and 9 relative to control. The series is classed as functional. To be noted: HCT-116, 24 h, read-out: TGI.
Series [12] concerns Mus musculus. Description: Toxicity in BALB/c mouse assessed as mortality at 12.5 mg/kg/day, iv administered on day 1, 5 and 9. Type of series: organism-based. More on the design: route intravenous. To be noted: in vivo.
For series [13], the system named is HCT-116. Description: Antitumor activity against human HCT116 cells xenografted in BALB/c mouse assessed as tumor growth inhibition at 50 mg/kg/day, iv administered on day 1, 5 and 9 relative to control. Type of series: functional. To be noted: HCT-116, 24 h, read-out: TGI.
Series [14] deals with HCT-116. Description: Antitumor activity against human HCT116 cells xenografted in BALB/c mouse assessed as tumor growth inhibition at 100 mg/kg/day, iv administered on day 1, 5 and 9 relative to control. The series is classed as functional. As to conditions: HCT-116, 24 h, read-out: TGI.
The subject of series [15] is Mus musculus. Description: Toxicity in BALB/c mouse assessed as mortality at 50 mg/kg/day, iv administered on day 1, 5 and 9. Type of series: organism-based. To be noted: in vivo. Also noted: route intravenous.
Series [16] deals with Mus musculus. Description: Toxicity in BALB/c mouse assessed as mortality at 100 mg/kg/day, iv administered on day 1, 5 and 9. Type of series: organism-based. Also noted: route intravenous. To be noted: in vivo.
In series [17] the test system is HCT-116. Description: Antitumor activity against human HCT116 cells xenografted in BALB/c mouse assessed as tumor growth inhibition at 2.5 mg/kg/day, iv administered on day 1, 5 and 9 relative to control. Type of series: functional. To be noted: HCT-116, 24 h, read-out: TGI.
For series [18], the system named is Mus musculus. Put plainly: Toxicity in BALB/c mouse assessed as mortality at 2.5 mg/kg/day, iv administered on day 1, 5 and 9. To be noted: in vivo. More on the design: route intravenous. Type of series: organism-based.

In general, IC50 refers to the concentration needed to halve the response being measured. The low end stands for greater potency, the high end for weaker potency. In the case of `COc1c(Cl)c2c(c(OC)c1OC)-c1ccc(OC)c(=O)cc1[C@@H](NC(=O)CO)CC2`, in the series on HCT-116 [1], the inhibition in vivo at 20 mg/kg/day was 43.6%. Also, in the series on HCT-116 [2], the inhibition in vivo at 40 mg/kg/day was found to be 66.7%. For the same compound, the Activity result in the series on Mus musculus [3] and with Mus musculus [4] was “Non-toxic” throughout. Besides, the figures for the IC50 with A549, in the series on HT-29 and in the series with HCT-116 [5] were 16.3 nM, 8 nM and 8.2 nM, respectively. The compound further showed a Stability with Liver of 1 µL/min/mg.
Take `COc1c(Cl)c2c(c(OC)c1OC)-c1ccc(OC)c(=O)cc1[C@@H](NC(=O)C(F)(F)F)CC2`: the inhibition in vivo at 5 mg/kg/day with HCT-116 [6] amounted to 30.6%. In the series on HCT-116 [7], the inhibition in vivo at 10 mg/kg/day turned out to be 62.7%. The Activity result in the series with Mus musculus [8] and in the series on Mus musculus [9] was “Non-toxic” each time. In addition, the IC50 was found to be 1.8 nM in the series on A549, 1.5 nM in the series with HT-29 and 1.5 nM in the series with HCT-116 [5]. Also, the Stability in the series with Liver was determined as 339 µL/min/mg.
Regarding `CCC(=O)N[C@H]1CCc2c(Cl)c(OC)c(OC)c(OC)c2-c2ccc(OC)c(=O)cc21`, the inhibition in vivo at 12.5 mg/kg/day in the series with HCT-116 [10] is 57.3%. Also, the inhibition in vivo at 25 mg/kg/day in the series on HCT-116 [11] was 76.1%. For the same compound, in the series on Mus musculus [12], the Activity result is “Non-toxic”. The IC50 in the series on A549 stood at 7.8 nM; in the series on HT-29 it was 3.3 nM; in the series on HCT-116 [5] it was 7.5 nM. Also, the Stability in the series with Liver is 302 µL/min/mg.
Regarding `COc1c(Cl)c2c(c(OC)c1OC)-c1ccc(OC)c(=O)cc1[C@@H](NC(=O)C(C)(C)O)CC2`, the inhibition in vivo at 50 mg/kg/day in the series on HCT-116 [13] turned out to be 58.5%. The inhibition in vivo at 100 mg/kg/day with HCT-116 [14] is 67.3%. Also, the Activity result in the series with Mus musculus [15] and in the series with Mus musculus [16] was “Non-toxic” each time. In addition, the IC50 is 19.4 nM with A549, 7.8 nM in the series on HT-29 and 8.1 nM with HCT-116 [5]. The compound also returned a Stability with Liver of 5 µL/min/mg.
Take `COc1c(Cl)c2c(c(OC)c1OC)-c1ccc(OC)c(=O)cc1[C@@H](NC(=O)c1cccc(N(C)C)c1)CC2`: in the series on HCT-116 [6], the inhibition in vivo at 5 mg/kg/day came to 25.3%. In the series with HCT-116 [17], the inhibition in vivo at 2.5 mg/kg/day turned out to be 31.4%. In addition, the Activity result with Mus musculus [8] and in the series with Mus musculus [18] was “Non-toxic” each time. Besides, the figures for the IC50 in the series with A549, in the series on HT-29 and in the series with HCT-116 [5] were 6.4 nM, 1.4 nM and 1.6 nM, respectively. Also, the Stability in the series on Liver stood at 122 µL/min/mg.

These data come from ChEMBL document CHEMBL3217664, “Synthesis and biological evaluation of 4-chlorocolchicine derivatives as potent anticancer agents with broad effective dosage ranges” (Medchemcomm, 2012).
